Patent publication US8435769B2, “Use of glyphosate to produce shikimic acid in microorganisms” (Monsanto Technology LLC, priority 2007, dated 2013)

Columns and labels:
Type in all cases: cell-based, Escherichia coli
[1] = tested on: untransformed host strain LBB427; assay: HPLC assay of culture supernatant after glyphosate treatment, untransformed strain
Procedure: (§1) To confirm that the new plasmid was functioning as expected, the wild-type E. coli K-12 host strain LBB427 was transformed with the plasmid pXT1457. Techniques for transforming bacteria, including strains of E. coli, are known in the art (Sambrook and Russell, 2001; Ausubel et al., 2005). The shikimic acid and phenylalanine production levels of this strain were compared to that of the untransformed host strain LBB427. […] At 24 hours after inoculation, the cells were pelleted by centrifugation, and the culture supernatants were analyzed by a high-pressure liquid chromatography (HPLC) assay for shikimic acid and phenylalanine content. […]
[…] At 24 hours after inoculation (i.e., 21.5 hours after N-(phosphonomethyl)glycine addition), the cells were pelleted by centrifugation, and the culture supernatants were analyzed for shikimic acid content using the HPLC assay described in Example 1. The culture supernatants of the host strain LBB427 transformed with the plasmid pXT1457 were also analyzed for phenylalanine content. […]

[2] = tested on: E. coli K-12 host strain LBB427 (untransformed and transformed with plasmid pXT1457); assay: Growth of shake-flask cultures after glyphosate addition; conditions: glyphosate 3.38 grams per liter (20 millimolar) added 2.5 hours after inoculation; Vogel-Bonner minimal culture medium; 37 degrees Celsius
Procedure: as §1
(§2) The untransformed host strain LBB427 and the host strain LBB427 transformed with the plasmid pXT1457 were grown in 50 milliliters of the Vogel-Bonner minimal culture medium described in Example 1. […] At 24 hours after inoculation (i.e., 21.5 hours after N-(phosphonomethyl)glycine addition), the cells were pelleted by centrifugation, and the culture supernatants were analyzed for shikimic acid content using the HPLC assay described in Example 1. The culture supernatants of the host strain LBB427 transformed with the plasmid pXT1457 were also analyzed for phenylalanine content.

[3] = tested on: host strain LBB427 transformed with the plasmid pXT1457; assay: HPLC assay of culture supernatant after glyphosate treatment, pXT1457 strain
Procedure: To confirm that the new plasmid was functioning as expected, the wild-type E. coli K-12 host strain LBB427 was transformed with the plasmid pXT1457. Techniques for transforming bacteria, including strains of E. coli, are known in the art (Sambrook and Russell, 2001; Ausubel et al., 2005). The shikimic acid and phenylalanine production levels of this strain were compared to that of the untransformed host strain LBB427. The strains were cultured in 50 milliliters of Vogel-Bonner minimal culture medium (Vogel and Bonner, 1956), consisting of magnesium sulfate heptahydrate (MgSO4-7H2O) at 298 milligrams per liter, anhydrous dibasic potassium phosphate (K2HPO4) at 14.93 grams per liter, sodium ammonium phosphate tetrahydrate (NaNH4HPO4-4H2O) at 5.22 grams per liter, anhydrous citric acid (the free acid form) at 2.73 grams per liter, and glucose at 2.00 grams per liter. The pH of the culture medium was 7.0. For the strain LBB427 transformed with the plasmid pXT1457, ampicillin was included in the culture medium at 100 milligrams per liter. The cultures were grown in flasks, on an incubator shaker operating at 300 rpm and 37 degrees Celsius. At 24 hours after inoculation, the cells were pelleted by centrifugation, and the culture supernatants were analyzed by a high-pressure liquid chromatography (HPLC) assay for shikimic acid and phenylalanine content. To the samples to be assayed, phosphoric acid was added to a final concentration of 6 millimolar. […]
as §2, with “content. […]” for “content.”

[4] = tested on: host strain LBB427 transformed with the plasmid pXT1483; assay: HPLC assay of culture supernatant after glyphosate treatment, pXT1483 strain
[5] = tested on: host strain LBB427 transformed with the plasmid pXT1483; assay: High-density phosphate-limited fermentation culture with glyphosate addition; conditions: optical density of 40; glyphosate 20 millimolar; twelve hours after addition; sample at pH 1.0, 60 degrees Celsius, 15 minutes
Procedure: The host strain LBB427 transformed with the plasmid pXT1483 can be grown to high optical densities in a phosphate-limited fermentation culture. Fermentations are conducted in a chemically-defined minimal medium containing 5.9 grams of anhydrous ammonium sulfate ((NH4)2SO4), 1.8 grams of anhydrous dibasic potassium phosphate (K2HPO4), 1.0 grams of monobasic sodium phosphate monohydrate (NaH2PO4—H2O), 550 milligrams of magnesium sulfate heptahydrate (MgSO4-7H2O), 27 milligrams of ferric chloride hexahydrate (FeCl3-6H2O), 0.5 milligrams of zinc sulfate heptahydrate (ZnSO4-7H2O), 0.9 milligrams of cobalt chloride hexahydrate (CoCl2-6H2O), 0.9 milligrams of sodium molybdate dihydrate (Na2MoO4-2H2O), 1.1 milligrams of cupric sulfate pentahydrate (CuSO4-5H2O), 0.3 milligrams of boric acid (H3BO3), and 0.7 milligrams of manganese sulfate monohydrate (MnSO4—H2O) per liter of water. The fermenter is maintained at 37 degrees Celsius. The pH is maintained at 7.0 by the controlled addition of concentrated (about 29%) ammonium hydroxide (NH4OH). […]
Twelve hours after N-(phosphonomethyl)glycine addition, samples of the fermentation cultures are taken for analysis of shikimic acid levels. […] The cells are pelleted by centrifugation, and the culture supernatants are analyzed for shikimic acid content using the HPLC assay described in Example 1.

[6] = glyphosate 20 millimolar and phosphate-limitation (PF culture medium), 24 hours after inoculation
[7] = glyphosate 20 millimolar, Vogel-Bonner minimal culture medium, 24 hours after inoculation (21.5 hours after addition)

`O=C(O)CNCP(=O)(O)O` [glyphosate, N-(phosphonomethyl)-glycine] was tested, and the “shikimic acid in the culture supernatant” value [1, 6] was “about 200 milligrams of shikimic acid per OD unit per liter”, the “shikimic acid in the culture supernatant” value [1, 7] was “did not produce detectable levels of shikimic acid” and the “Growth of the cultures” value [2] was “almost completely inhibited”. For the same compound, the “shikimic acid in the culture supernatant” value [3, 6] was “about 250 milligrams of shikimic acid per OD unit per liter”, the “shikimic acid in the culture supernatant” value [3, 7] was “did not produce detectable levels of shikimic acid” and the “phenylalanine in the culture supernatant” value ([3]; glyphosate 20 millimolar, Vogel-Bonner minimal culture medium, 24 hours after inoculation, about 400 without glyphosate) was “about 50 milligrams of phenylalanine per OD unit per liter”. For the same compound, the “shikimic acid in the culture supernatant” value [4, 6] was “about 400 milligrams of shikimic acid per OD unit per liter”, the “level of shikimic acid in the culture supernatant” value ([4]; glyphosate 20 millimolar and phosphate-limitation, culture sample with cells adjusted to pH 1.0, heated to 60 degrees Celsius for 15 minutes) was “about 600 milligrams per OD unit per liter” and the “shikimic acid in the culture supernatant” value [5] was “about 24 grams of shikimic acid per liter”.
